Paper PMC6595003, “Insights into real-time chemical processes in a calcium sensor protein-directed dynamic library” (Nature Communications, 2019)
“And” between values parts separate entries of the source, which are not always exact repeats. Equal values may be shown once.

How the values were obtained:
dNCS-1 [1] = molecular target: T1, dNCS-1 (Drosophila melanogaster, UniProt Q9VWX8); experiment: tr-NOESY, DOSY and 1H-NMR of DCL mixtures in the presence of dNCS-1; type: binding; conditions: 281 K, up to 15 days
T1 construct: made in house; host or cells: E. coli
T1 sequence (Q9VWX8 1-187): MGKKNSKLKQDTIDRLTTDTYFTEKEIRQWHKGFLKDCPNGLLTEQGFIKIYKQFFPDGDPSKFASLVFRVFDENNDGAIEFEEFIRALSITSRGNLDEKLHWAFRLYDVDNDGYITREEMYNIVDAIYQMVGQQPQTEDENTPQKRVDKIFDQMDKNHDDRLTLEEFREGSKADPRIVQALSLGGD
Experimental: Fig. 4 HPLC-MS and NMR studies of the full dynamic combinatorial library. a DCL chromatograms after 5 h in the absence and in the presence of dNCS-1. Conditions: aldehyde 1 (1.2 µL, 50 mM), 2a–2e (3.6 µL, 50 mM), catalyst (1 µL, 12 M), dNCS-1:1 [1:1], Tris buffer (20 mM, pH 7.4), 1 mM CaCl2, 0.5 M NaCl, 1 mM DTT, T = 4 °C, 2% DMSO. DCC experiments were carried out in triplicate. b 1D-^1H NMR spectrum (red) of the mixture and DOSY experiment (black) of the DCL in the presence of dNCS-1 (281 K, 600 MHz). c Tr-NOESY spectrum of the DCL mixture in the presence of dNCS-1 (mixing time 200 ms, 281 K, 600 MHz). Amplification of the region δ 7.2–8.0 ppm. […]. The new signals that reveal the formation of 3b (aromatic region) and 2c (aliphatic region) are marked with stars. ^1H-STD-NMR (blue) and off-resonance (red) NMR spectra of the mixture 2b + 3c + dNCS-1 (281 K, 600 MHz) after 15 days
DOSY-NMR and tr-NOESY-NMR experiments were also recorded to follow the exchange process.
The experiments were performed on the same samples and spectrometer, at 281 K. The tr-NOESY mixing time was fixed at 200 ms. The DOSY experiments were acquired with 16 gradient increments to a final intensity decay of 90%.

dNCS-1 [2] = molecular target: T1, dNCS-1; experiment: Protein-directed DCL, HPLC-MS relative peak area with and without dNCS-1
Experimental: The reversibility of the DCL was evident, since an identical equilibrium distribution to that shown in Fig. 4a was obtained when two different starting points were employed. The observed degree of amplification was 3b > 3e ≥ 3d > 3a. The precise composition of the DCL (with and without dNCS-1), was assessed by measuring the relative peak area (RPA). Indeed, the normalized change of RPA was used to quantify the protein influence in the final outcome (Supplementary Figs. 9, 10 and Supplementary Tables 1, 2 and 3)[28]. […] Note that compounds 3a–3e can exist as E/Z isomers of the C = N bond. […].
Aldehyde 1 (1.2 μL, 50 mM, DMSO), the five acylhydrazides 2a–2e (5 × 3.6 μL, 50 mM, DMSO), p-anisidine (1 μL, 12 M, DMSO) and buffer 20 mM Tris, 0.5 M NaCl and 1 mM CaCl2, 1 mM DTT at pH 7.4 (750 μL) in 3.3 % DMSO. The mixture was stabilized in 5 h at 4 °C. HPLC analysis was performed.
Aldehyde 1 (1.2 μL, 50 mM, DMSO), the five acylhydrazides 2a–2e (5 × 3.6 μL, 50 mM, DMSO), p-anisidine (1 μL, 12 mM, DMSO) and dNCS-1 in buffer 20 mM Tris, 0.5 M NaCl and 1 mM CaCl2, 1 mM DTT at pH 7.4 (66.7 μM, 750 μL, 1 eq.). The experiment is in 3.3% DMSO. The mixture was stabilized for 5 h at 4 °C. Then, dNCS-1 was removed by ultrafiltration using an Amicon Ultra filter (0.5–10 KDa). HPLC analysis was performed and the traces were compared with the blank composition.
Supplementary Figure 9. Relative Peak Area of the DCL with and without dNCS1. Aldehyde
1 (1.2 µL, 50 mM), 2a-e (3.6 µL, 50 mM), catalyst (1 µL, 12 M), dNCS-1:1 [1:1], tris buffer (20
mM, pH 7.4), 1 mM CaCl2, 0.5 M NaCl, 1 mM DTT, T = 4 °C, 2% DM SO. Mean relative peak
area (RPA) of each acylhydrazone of the library in the absence (blank) and presence of dNCS-1.
Error bars indicate standard deviation (SD) over three experiments. The calculation is set by the
sum of all peak areas to 100% and assigning each peak its percentage. Source data are provided
R P A N o rm aliz ed V a riation
Supplementary Figure 10. RPA normalized of variation of DCL with and without dNCS1.
Aldehyde 1 (1.2 µL, 50 mM), 2a-e (3.6 µL, 50 mM), catalyst (1 µL, 12 M), dNCS-1:1 [1:1], tris
buffer (20 mM, pH 7.4), 1 mM CaCl2, 0.5 M NaCl, 1 mM DTT, T = 4 °C, 2% DM SO. Error
bars indicate SD over three experiments. Source data are provided as a Source Data file.

dNCS-1 [3] = molecular target: T1, dNCS-1; experiment: Tryptophan emission fluorescence of dNCS-1 at increasing ligand concentrations (apparent Kd); type: binding
Experimental: Fluorescence-based experiments with 3a–3e were carried out to estimate their affinity to dNCS-1.
Mean ± SD from three independent experiments. The curves represent the least squares fitting of the experimental data to a 1:1 stoichiometry. To properly compare the different curves, intensities were normalized and represented. […] Input represents 1/10 cell lysates before IP. Quantifications of each lane from four experiments are shown below the blots. Bars represent percentage of NCS-1/ Ric8a binding (mean ± SD) normalized to DMSO. […] Mean ± SD from three independent experiments. […] Then, the percentage of picnotic bodies over the total nuclei was analyzed. Mean ± SD from three independent experiments. Paired two-tailed Student’s test ***P˂0.001; **P < 0.01; *P < 0.05. Source data are provided as a Source Data file. IP immunoprecipitation, WB western blot […]
the length of the pass light (L) is 1cm (see Supplementary Table 3 and Supplementary […]
Fluorescence emission experiments. Tryptophan emission fluorescence of dNCS-1 […]
affinity and calculate the apparent dissociation constant, Kd. Fluorescence measurements were performed by Jobin Yvon Floromax4 spectrofluorimeter equipped […]
5% DMSO at 5 °C. The excitation wavelength was fixed at 295 nm, and the emission spectra range were collected over 300-400 nm.
Then, three independent experiments were performed
Fluorescence intensities were normalized and represented as (I0 − I)/I 0. I stands for the observed fluorescence emission at 345 nm (fluorescence maximum), and I0 is the observed fluorescence emission of the protein itself without any small molecule. The apparent dissociation constant was obtained using a least squares algorithm to fit the experimental data to a 1:1 stoichiometry model.6 The fitting was performed with KaleidaGraph Data Analysis Program. […]
Protein expression and purification. Drosophila and human NCS-1 were over-expressed in E. coli and subsequently purified to homogeneity as previously described.9

NCS-1/Ric8a interaction [4] = molecular target: T2, NCS-1/Ric8a interaction (Homo sapiens, UniProt P62166); experiment: Co-IP binding assay of human NCS-1 and V5-tagged Ric8a in transfected HEK cells; type: cell-based; conditions: compound 20 μM
T2 construct: expressed in transfected cells; host or cells: HEK293 cells (Dharmacon)
From the text: (§1) Mean ± SD from three independent experiments. The curves represent the least squares fitting of the experimental data to a 1:1 stoichiometry. To properly compare the different curves, intensities were normalized and represented. […] Input represents 1/10 cell lysates before IP. Quantifications of each lane from four experiments are shown below the blots. Bars represent percentage of NCS-1/ Ric8a binding (mean ± SD) normalized to DMSO. […] CNS + (green) for Pe > 4.47 × 10^−6 cm s^−1, CNS- (red) for compounds with Pe < 4.47 × 10^–6 cm s^−1. […] Mean ± SD from three independent experiments. […] Then, the percentage of picnotic bodies over the total nuclei was analyzed. Mean ± SD from three independent experiments. Paired two-tailed Student’s test ***P˂0.001; **P < 0.01; *P < 0.05. Source data are provided as a Source Data file. IP immunoprecipitation, WB western blot
Binding assays with NCS-1 and Ric8a in co-transfected HEK cells were carried out to study the modulation effect of compounds 3a, 3b and 3d in the protein-protein interaction (Fig. 6b).
hNCS-1 and V5-tagged hRic8a were co-transfected into HEK293 cells (Dharmacon) using Lipofectamine 2000 (Invitrogen)[13]. After 24 h, after transfection, DMSO alone or the compounds dissolved in DMSO (20 μM) were added to the culture cells. Then, 24 h after transfection, cells were lysed with Lysis buffer (150 mM NaCl, 1.0% Nonidet P-40, 50 mM Tris, pH 8.0) in the presence of the compounds (20 μM), whose concentration was maintained throughout the immunoprecipitation assay. Precleared lysates were incubated overnight (12 h) at 4 °C with mouse anti-NCS-1 (1:500; Cell Signaling). Samples were subsequently incubated overnight with Protein-G-Sepharose (Sigma-Aldrich), washed and eluted from the Sepharose. Samples were analyzed by Western blot following standard procedures. […] Original representative western blots are found in Source Data file.

[5] = tested on: Cortical neurons from E14 wild-type mice; experiment: Toxicity in primary cultured neurons (percentage of picnotic bodies); type: cell-based; conditions: C57BL6J, mouse, 24 h
From the text: as §1
Finally, cell toxicity in neurons was quantified as percentage of picnotic bodies for 3b (Fig. 6d).
Cortical neurons were obtained from E14 wt mice (C57BL6J). Mice were maintained in accordance to European law and following Hospital Ramón y Cajal´s animal guidelines. […] Three independent experiments counting cells from three different wells per concentration were performed. To analyzed cell death, neurons were fixed and stained with DAPI.

NCS-1/Ric8a interaction [6] = tested on: NCS-1/Ric8a interaction; parameters: method as in PMID 28119500, PMID 29966094; conditions: cited from earlier work
[7] = Ca2+ loaded dNCS-1 0.8 µM, pH 7.9, 5% DMSO, 5 °C, fit to 1:1 stoichiometry, three independent experiments

T2 sequence (P62166 2-190 limits assumed): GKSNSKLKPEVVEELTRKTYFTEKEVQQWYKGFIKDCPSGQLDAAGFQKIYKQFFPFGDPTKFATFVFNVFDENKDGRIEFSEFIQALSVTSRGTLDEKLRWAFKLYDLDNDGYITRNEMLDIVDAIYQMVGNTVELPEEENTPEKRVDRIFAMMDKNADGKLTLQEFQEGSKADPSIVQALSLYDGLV

## COCCC(=O)N/N=C/c1ccc([N+](=O)[O-])c(O)c1 [3c]
dNCS-1 [1]
  binding to dNCS-1 (1H-NMR evolution of the mixture 3c + 2b with dNCS-1): extremely weak or non-binder
dNCS-1 [2]; after 5 h, 4 °C, pH 7.4, p-anisidine catalyst
  degree of amplification in the DCL in presence of dNCS-1: clearly reduced in presence of dNCS-1
dNCS-1 [2]; as fraction of total area
  RPA, Blank DCL: 0.09603
dNCS-1 [2]; as fraction of total area, with dNCS-1
  RPA, Templated DCL: 0
dNCS-1 [2]; relative peak area in presence of dNCS-1
  RPA (%) with protein (templated DCL): 0%
dNCS-1 [2]; relative peak area, sum of all peak areas set to 100%
  RPA (%) without protein (blank DCL): 9.6% and 9.603%
dNCS-1 [2]; sheet Supplementary Figure 10
  RPA (%), Blank DCL: 9.6%
dNCS-1 [2]; sheet Supplementary Figure 10, with dNCS-1
  RPA (%), Templated DCL: 0%
dNCS-1 [2]; with vs without dNCS-1
  Normalized Change of RPA: -1
dNCS-1 [3]; [7]
  apparent Kd: did not show affinity

## CN(C)CCCN1c2ccccc2Sc2ccc(Cl)cc21 [CPZ, Chlorpromazine, reference compound]
NCS-1/Ric8a interaction [4]; compared with DMSO (basal binding 100%)
  modulation of the NCS-1/Ric8a binding: reduced binding
NCS-1/Ric8a interaction [4]; DMSO in the same experiment 4613104
  Densitometry of V5-Ric8a co-immunoprecipitated with NCS-1, exp3: 3547054
NCS-1/Ric8a interaction [4]; DMSO in the same experiment 9508518
  Densitometry of V5-Ric8a co-immunoprecipitated with NCS-1, exp2: 4354560
NCS-1/Ric8a interaction [4]; DMSO in the same experiment 19247016
  Densitometry of V5-Ric8a co-immunoprecipitated with NCS-1, exp1: 3883518
dNCS-1 [3]; [7]
  Kd: 12 ± 2 µM
dNCS-1 [3]; ligand 3.2 μM
  Normalized Fluorescence I0-I/I0: 0.266
dNCS-1 [3]; ligand 6.4 μM
  Normalized Fluorescence I0-I/I0: 0.263
dNCS-1 [3]; ligand 8 μM
  Normalized Fluorescence I0-I/I0: 0.448
dNCS-1 [3]; ligand 16 μM
  Normalized Fluorescence I0-I/I0: 0.643
dNCS-1 [3]; ligand 24 μM
  Normalized Fluorescence I0-I/I0: 0.730
dNCS-1 [3]; ligand 32 μM
  Normalized Fluorescence I0-I/I0: 0.794
[5]; 0.2 μM
  percentage of picnotic bodies over total nuclei, average: 11.1667%
  percentage of picnotic bodies, % exp 2: 9.6%
  percentage of picnotic bodies, % exp 3: 11.1%
  percentage of picnotic bodies, % exp.1: 12.8%
[5]; 2 μM
  percentage of picnotic bodies over total nuclei, average: 15.1%
  percentage of picnotic bodies, % exp 2: 11%
  percentage of picnotic bodies, % exp 3: 19.3%
  percentage of picnotic bodies, % exp.1: 15%
[5]; 10 μM
  percentage of picnotic bodies over total nuclei, average: 22.2333%
  percentage of picnotic bodies, % exp 2: 25.7%
  percentage of picnotic bodies, % exp 3: 15%
  percentage of picnotic bodies, % exp.1: 26%
[5]; 20 μM
  percentage of picnotic bodies over total nuclei, average: 38.7667%
  percentage of picnotic bodies, % exp 2: 29.3%
  percentage of picnotic bodies, % exp 3: 39%
  percentage of picnotic bodies, % exp.1: 48%
NCS-1/Ric8a interaction [6]
  reported inhibition of the NCS-1/Ric8a interaction: mild inhibitor and mild
